According to patent publication US20250388589A1, “TRICYCLIC HETEROCYCLIC DERIVATIVES, COMPOSITIONS AND USES THEREOF” (Danatlas Pharmaceuticals Co., Ltd., priority 2022, published 2025):

Legend:
Kuramochi cell line = test: Cell Viability Assay (Cell Titer-Glo, 7 days); format: cell-based; settings: 168 h, Kuramochi cells, 7 days incubation, read-out: PARG Cell viability (IC50)
Summary of the method: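 Kuramochi cells in RPMI with 10% FBS, seeded at 400 cells/well, were treated with a 9-point 3-fold dilution series in duplicate for 7 days at 37 °C, 5% CO2. Viability by CellTiter-Glo luminescence, normalised to DMSO and medium-only controls; IC50 from 4-parameter Hill fit.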

[1] = molecular target: hPARG (C-terminal His6-tag) (Homo sapiens (Human), UniProt Q86W56); test: PARG Enzymatic Activity Assay (HTRF); format: biochemical; settings: hPARG 65 pM final, biotinylated-NAD ribosylated PARP1 8 nM final
Summary of the method: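 E. coli-expressed enzyme (65 pM final) preincubated 60 min RT with compounds (10-point 4-fold dilution, duplicate) in 50 mM Tris pH 7.4, 3 mM EDTA, 1 mM DTT, 50 mM KCl, 0.01% Tween 20. Biotinylated-NAD ribosylated PARP1 substrate (8 nM final) reacted 10 min RT; Eu-streptavidin/anti-6HIS-XL665 HTRF read 665/620 nm after 60 min. IC50 from 4-parameter Hill fit.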

hPARG (C-terminal His6-tag), sequence (Q86W56 whole entry): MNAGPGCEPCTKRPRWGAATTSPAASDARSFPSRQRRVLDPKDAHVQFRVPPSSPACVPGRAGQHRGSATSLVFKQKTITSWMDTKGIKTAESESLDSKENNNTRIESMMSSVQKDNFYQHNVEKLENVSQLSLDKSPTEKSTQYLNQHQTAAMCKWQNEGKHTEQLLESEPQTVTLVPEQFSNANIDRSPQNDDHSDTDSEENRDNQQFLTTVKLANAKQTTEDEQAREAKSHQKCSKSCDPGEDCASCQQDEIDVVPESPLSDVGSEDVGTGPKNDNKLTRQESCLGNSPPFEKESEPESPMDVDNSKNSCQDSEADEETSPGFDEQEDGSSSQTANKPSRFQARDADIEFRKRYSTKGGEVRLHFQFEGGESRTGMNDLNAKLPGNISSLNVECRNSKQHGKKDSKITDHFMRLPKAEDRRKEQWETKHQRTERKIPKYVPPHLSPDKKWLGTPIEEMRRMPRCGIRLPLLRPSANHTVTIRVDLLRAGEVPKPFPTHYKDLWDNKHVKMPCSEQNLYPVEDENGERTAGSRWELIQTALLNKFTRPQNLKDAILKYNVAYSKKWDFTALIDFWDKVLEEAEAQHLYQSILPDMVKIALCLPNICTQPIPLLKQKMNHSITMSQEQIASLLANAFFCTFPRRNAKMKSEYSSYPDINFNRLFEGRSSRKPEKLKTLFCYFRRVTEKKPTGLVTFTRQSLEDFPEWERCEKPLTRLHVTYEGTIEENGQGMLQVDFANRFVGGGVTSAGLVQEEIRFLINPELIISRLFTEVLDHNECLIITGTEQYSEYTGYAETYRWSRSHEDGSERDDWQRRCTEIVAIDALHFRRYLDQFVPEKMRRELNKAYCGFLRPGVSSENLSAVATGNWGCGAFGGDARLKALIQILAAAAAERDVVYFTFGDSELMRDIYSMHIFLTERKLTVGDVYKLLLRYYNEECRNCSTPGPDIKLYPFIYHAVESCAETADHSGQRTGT

SMILES | IC50 [1] | IC50 (Kuramochi cell line)
CO[C@@H](C)C(=O)N1CCC(c2ncnc3c2c2ccc(S(=O)(=O)NC4(C#N)CC4)cc2n3-c2nnc(C(F)F)s2)CC1 [Example 108, (S)-N-(1-Cyanocyclopropyl)-9-(5-(difluoromethyl)-1,3,4-thiadiazol-2-yl)-4-(1-(2-methoxypropanoyl)piperidin-4-yl)-9H-pyrimido[4,5-b]indole-7-sulfonamide] | < 100 nM | < 100 nM
CC(C)S(=O)(=O)N1CCC(c2ncnc3c2c2ccc(S(=O)(=O)NC4(C#N)CC4)cc2n3-c2nnc(C(F)F)s2)CC1 [Example 123, N-(1-Cyanocyclopropyl)-9-(5-(difluoromethyl)-1,3,4-thiadiazol-2-yl)-4-(1-(isopropylsulfonyl)piperidin-4-yl)-9H-pyrimido[4,5-b]indole-7-sulfonamide] | < 100 nM | < 100 nM
C[C@H](N)C(=O)N1CCC(c2ncnc3c2c2ccc(S(=O)(=O)NC4(C#N)CC4)cc2n3-c2nnc(C(F)F)s2)CC1 [Example 128, 4-(1-(L-alanyl)piperidin-4-yl)-N-(1-cyanocyclopropyl)-9-(5-(difluoromethyl)-1,3,4-thiadiazol-2-yl)-9H-pyrimido[4,5-b]indole-7-sulfonamide] | < 100 nM | 100 to 1000 nM
N#CC1(NS(=O)(=O)c2ccc3c4c(N5CCN(c6cccnn6)CC5)ncnc4n(-c4nnc(C(F)F)s4)c3c2)CC1 [Example 19, N-(1-Cyanocyclopropyl)-9-(5-(difluoromethyl)-1,3,4-thiadiazol-2-yl)-4-(4-(pyridazin-3-yl)piperazin-1-yl)-9H-pyrimido[4,5-b]indole-7-sulfonamide] | < 100 nM | 100 to 1000 nM
CC(C)(N)C(=O)N1CCC(c2ncnc3c2c2ccc(S(=O)(=O)NC4(C#N)CC4)cc2n3-c2nnc(C(F)F)s2)CC1 [Example 126, 4-(1-(2-Amino-2-methylpropanoyl)piperidin-4-yl)-N-(1-cyanocyclopropyl)-9-(5-(difluoromethyl)-1,3,4-thiadiazol-2-yl)-9H-pyrimido[4,5-b]indole-7-sulfonamide] | < 100 nM | 100 to 1000 nM
CN(C)C(=O)N1CCC(c2ncnc3c2c2cc(F)c(S(=O)(=O)NC4(C)CC4)cc2n3-c2nnc(C(F)F)s2)CC1 [Example 82, 4-(9-(5-(Difluoromethyl)-1,3,4-thiadiazol-2-yl)-6-fluoro-7-(N-(1-methylcyclopropyl)sulfamoyl)-9H-pyrimido[4,5-b]indol-4-yl)-N,N-dimethylpiperidine-1-carboxamide] | < 100 nM | < 100 nM
CC(C)C(=O)N1C[C@H](C)N(c2ncnc3c2c2ccc(S(=O)(=O)NC4(C#N)CC4)cc2n3-c2nnc(C(F)F)s2)C[C@@H]1C [Example 57, N-(1-cyanocyclopropyl)-9-(5-(difluoromethyl)-1,3,4-thiadiazol-2-yl)-4-((2S,5S)-4-isobutyryl-2,5-dimethylpiperazin-1-yl)-9H-pyrimido[4,5-b]indole-7-sulfonamide] | 100 to 1000 nM | 100 to 1000 nM
CC1(NS(=O)(=O)c2ccc3c4c(C5CCN(C(=O)N6CC[C@H](O)C6)CC5)ncnc4n(-c4nnc(C(F)F)s4)c3c2)CC1 [Example 131, (S)-9-(5-(Difluoromethyl)-1,3,4-thiadiazol-2-yl)-4-(1-(3-hydroxypyrrolidine-1-carbonyl)piperidin-4-yl)-N-(1-methylcyclopropyl)-9H-pyrimido[4,5-b]indole-7-sulfonamide] | < 100 nM | < 100 nM
CN(C)C(=O)N1CCC(c2ncnc3c2c2ccc(S(=O)(=O)NC4(C)CC4)cc2n3-c2nnc(C(F)F)s2)CC1 [Example 153, 4-(9-(5-(Difluoromethyl)-1,3,4-thiadiazol-2-yl)-7-(N-(1-methylcyclopropyl)sulfamoyl)-9H-pyrimido[4,5-b]indol-4-yl)-N,N-dimethylpiperidine-1-carboxamide] | < 100 nM | < 100 nM
CN(C)C(=O)N1CC2CN(c3ncnc4c3c3ccc(S(=O)(=O)NC5(C#N)CC5)cc3n4-c3nnc(C(F)F)s3)CC2C1 (stereo not shown) [Example 28, 5-(7-(N-(1-Cyanocyclopropyl)sulfamoyl)-9-(5-(difluoromethyl)-1,3,4-thiadiazol-2-yl)-9H-pyrimido[4,5-b]indol-4-yl)-N,N-dimethylhexahydropyrrolo[3,4-c]pyrrole-2(1H)-carboxamide] | < 100 nM | 100 to 1000 nM
Cc1ccc(C(=O)N2CCN(c3ncnc4c3c3ccc(S(=O)(=O)NC5(C#N)CC5)cc3n4-c3nnc(C(F)F)s3)CC2)nc1 [Example 35, N-(1-Cyanocyclopropyl)-9-(5-(difluoromethyl)-1,3,4-thiadiazol-2-yl)-4-(4-(5-methylpicolinoyl)piperazin-1-yl)-9H-pyrimido[4,5-b]indole-7-sulfonamide] | < 100 nM | < 100 nM
CC(C)C(=O)N1[C@H](C)CN(c2ncnc3c2c2ccc(S(=O)(=O)NC4(C#N)CC4)cc2n3-c2nnc(C(F)F)s2)C[C@H]1C [Example 31, N-(1-Cyanocyclopropyl)-9-(5-(difluoromethyl)-1,3,4-thiadiazol-2-yl)-4-((3R,5R)-4-isobutyryl-3,5-dimethylpiperazin-1-yl)-9H-pyrimido[4,5-b]indole-7-sulfonamide] | 100 to 1000 nM | 100 to 1000 nM

The next lines start with results.

IC50 [1] | SMILES | IC50 (Kuramochi cell line)
< 100 nM | CC(C)N1CCN(c2ncnc3c2c2ccc(S(=O)(=O)NC4(C#N)CC4)cc2n3-c2nnc(C(F)F)s2)CC1=O [Example 180, N-(1-Cyanocyclopropyl)-9-(5-(difluoromethyl)-1,3,4-thiadiazol-2-yl)-4-(4-isopropyl-3-oxopiperazin-1-yl)-9H-pyrimido[4,5-b]indole-7-sulfonamide] | < 100 nM
< 100 nM | CN1CCN(C(=O)N2CCN(c3ncnc4c3c3ccc(S(=O)(=O)NC5(C#N)CC5)cc3n4-c3nnc(C(F)F)s3)CC2)CC1 [Example 9, N-(1-Cyanocyclopropyl)-9-(5-(difluoromethyl)-1,3,4-thiadiazol-2-yl)-4-(4-(4-methylpiperazine-1-carbonyl)piperazin-1-yl)-9H-pyrimido[4,5-b]indole-7-sulfonamide] | 100 to 1000 nM
< 100 nM | N#CC1(NS(=O)(=O)c2ccc3c4c(N5CCC6(CCCO6)CC5)ncnc4n(-c4nnc(C(F)F)s4)c3c2)CC1 [Example 182, N-(1-Cyanocyclopropyl)-9-(5-(difluoromethyl)-1,3,4-thiadiazol-2-yl)-4-(1-oxa-8-azaspiro[4.5]decan-8-yl)-9H-pyrimido[4,5-b]indole-7-sulfonamide] | < 100 nM
< 100 nM | CC1(O)CCN(c2ncnc3c2c2ccc(S(=O)(=O)NC4(C#N)CC4)cc2n3-c2nnc(C(F)F)s2)CC1 [Example 48, N-(1-Cyanocyclopropyl)-9-(5-(difluoromethyl)-1,3,4-thiadiazol-2-yl)-4-(4-hydroxy-4-methylpiperidin-1-yl)-9H-pyrimido[4,5-b]indole-7-sulfonamide] | < 100 nM
< 100 nM | C[C@@H]1COCCN1c1ncnc2c1c1ccc(S(=O)(=O)NC3(C#N)CC3)cc1n2-c1nnc(C(F)F)s1 [Example 199, (R)—N-(1-Cyanocyclopropyl)-9-(5-(difluoromethyl)-1,3,4-thiadiazol-2-yl)-4-(3-methylmorpholino)-9H-pyrimido[4,5-b]indole-7-sulfonamide] | < 100 nM
< 100 nM | N#CC1(NS(=O)(=O)c2ccc3c4c(N5CCS(=O)(=O)CC5)ncnc4n(-c4nnc(C(F)F)s4)c3c2)CC1 [Example 166, N-(1-cyanocyclopropyl)-9-(5-(difluoromethyl)-1,3,4-thiadiazol-2-yl)-4-(1,1-dioxidothiomorpholino)-9H-pyrimido[4,5-b]indole-7-sulfonamide] | 100 to 1000 nM
< 100 nM | N#CC1(NS(=O)(=O)c2ccc3c4c(N5C[C@H]6COC[C@H]6C5)ncnc4n(-c4nnc(C(F)F)s4)c3c2)CC1 [Example 169, N-(1-Cyanocyclopropyl)-9-(5-(difluoromethyl)-1,3,4-thiadiazol-2-yl)-4-((3aR,6aS)-tetrahydro-1H-furo[3,4-c]pyrrol-5(3H)-yl)-9H-pyrimido[4,5-b]indole-7-sulfonamide] | < 100 nM
< 100 nM | C[C@@H]1CN(c2ncnc3c2c2ccc(S(=O)(=O)NC4(C#N)CC4)cc2n3-c2nnc(C(F)F)s2)CCN1C(=O)C1CCC1 [Example 5, (R)-N-(1-Cyanocyclopropyl)-4-(4-(cyclobutanecarbonyl)-3-methylpiperazin-1-yl)-9-(5-(difluoromethyl)-1,3,4-thiadiazol-2-yl)-9H-pyrimido[4,5-b]indole-7-sulfonamide] | 100 to 1000 nM
100 to 1000 nM | N#CC1(NS(=O)(=O)c2ccc3c4c(N5CC[C@@H](O)C5)ncnc4n(-c4nnc(C(F)F)s4)c3c2)CC1 [Example 54, (R)-N-(1-Cyanocyclopropyl)-9-(5-(difluoromethyl)-1,3,4-thiadiazol-2-yl)-4-(3-hydroxypyrrolidin-1-yl)-9H-pyrimido[4,5-b]indole-7-sulfonamide] | 100 to 1000 nM
< 100 nM | N#CC1(NS(=O)(=O)c2ccc3c4c(N5CCC(N6CCCC6)[C@@H](F)C5)ncnc4n(-c4nnc(C(F)F)s4)c3c2)CC1 (stereo partly drawn) [Example 207, N-(1-Cyanocyclopropyl)-9-(5-(difluoromethyl)-1,3,4-thiadiazol-2-yl)-4-((3S)-3-fluoro-4-(pyrrolidin-1-yl)piperidin-1-yl)-9H-pyrimido[4,5-b]indole-7-sulfonamide] | < 100 nM
< 100 nM | CC(C)(C)C(=O)N1CCN(c2ncnc3c2c2ccc(S(=O)(=O)NC4(C#N)CC4)cc2n3-c2nnc(C(F)F)s2)CC1 [Example 3, N-(1-Cyanocyclopropyl)-9-(5-(difluoromethyl)-1,3,4-thiadiazol-2-yl)-4-(4-pivaloylpiperazin-1-yl)-9H-pyrimido[4,5-b]indole-7-sulfonamide] | < 100 nM
